Experimental data published in patent publication US20210045385A1, “PYRIDAZINONE-SUBSTITUTED KETOXIMES AS HERBICIDES” (FMC Corporation, priority 2018, published 2021).

Assays:
Format in all cases: in vivo
[1] = test system: barnyardgrass (Echinochloa crus-galli); assay: Test A postemergence, visual plant response rating; details: for Barnyardgrass plant response rating (0 to 100 scale): 500 g ai/ha, postemergence, 0 is no effect, 100 is complete control; for Barnyardgrass plant response rating: Postemergence, 125 g ai/ha, 0 to 100 scale (0 no effect, 100 complete control)
Summary of the method: (§1)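 Compared with untreated controls, treated plants received a visual injury score on a 0–100 scale around 10 days after application. The compound, in a non-phytotoxic solvent with surfactant, was given as a preemergence soil spray or postemergence at the one- to two-leaf stage.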

corn (Zea mays) = assay: Test A postemergence, visual plant response rating; details: for Corn plant response rating (0 to 100 scale): 500 g ai/ha, postemergence, 0 is no effect, 100 is complete control; for Corn plant response rating: Postemergence, 125 g ai/ha, 0 to 100 scale (0 no effect, 100 complete control)
Summary of the method: as §1

[2] = test system: galium (catchweed bedstraw, Galium aparine); assay: Test A postemergence, visual plant response rating; details: for Galium plant response rating (0 to 100 scale): 500 g ai/ha, postemergence, 0 is no effect, 100 is complete control; for Galium plant response rating: Postemergence, 125 g ai/ha, 0 to 100 scale (0 no effect, 100 complete control)
Summary of the method: as §1

kochia (Kochia scoparia) [3] = assay: Test A postemergence, visual plant response rating; details: for Kochia plant response rating (0 to 100 scale): 500 g ai/ha, postemergence, 0 is no effect, 100 is complete control; for Kochia plant response rating: Postemergence, 125 g ai/ha, 0 to 100 scale (0 no effect, 100 complete control)
Summary of the method: as §1

[4] = test system: blackgrass (Alopecurus myosuroides); assay: Test A postemergence, visual plant response rating; details: for Blackgrass plant response rating (0 to 100 scale): 500 g ai/ha, postemergence, 0 is no effect, 100 is complete control; for Blackgrass plant response rating: Postemergence, 125 g ai/ha, 0 to 100 scale (0 no effect, 100 complete control)
Summary of the method: as §1

[5] = test system: pigweed (Amaranthus retroflexus); assay: Test A postemergence, visual plant response rating; details: for Pigweed plant response rating (0 to 100 scale): 500 g ai/ha, postemergence, 0 is no effect, 100 is complete control; for Pigweed plant response rating: Postemergence, 125 g ai/ha, 0 to 100 scale (0 no effect, 100 complete control)
Summary of the method: as §1

[6] = test system: Italian ryegrass (Lolium multiflorum); assay: Test A postemergence, visual plant response rating; details: for Ryegrass, Italian plant response rating (0 to 100 scale): 500 g ai/ha, postemergence, 0 is no effect, 100 is complete control; for Ryegrass, Italian plant response rating: Postemergence, 125 g ai/ha, 0 to 100 scale (0 no effect, 100 complete control)
Summary of the method: as §1

[7] = test system: wheat (Triticum aestivum); assay: Test A postemergence, visual plant response rating; details: for Wheat plant response rating (0 to 100 scale): 500 g ai/ha, postemergence, 0 is no effect, 100 is complete control; for Wheat plant response rating: Postemergence, 125 g ai/ha, 0 to 100 scale (0 no effect, 100 complete control)
Summary of the method: as §1

[8] = test system: ragweed (common ragweed, Ambrosia elatior); assay: Test A postemergence, visual plant response rating; details: for Ragweed plant response rating (0 to 100 scale): 500 g ai/ha, postemergence, 0 is no effect, 100 is complete control; for Ragweed plant response rating: Postemergence, 125 g ai/ha, 0 to 100 scale (0 no effect, 100 complete control)
Summary of the method: as §1

[9] = test system: foxtail, giant (giant foxtail, Setaria faberii); assay: Test A postemergence, visual plant response rating; details: for Foxtail, Giant plant response rating (0 to 100 scale): 500 g ai/ha, postemergence, 0 is no effect, 100 is complete control; for Foxtail, Giant plant response rating: Postemergence, 125 g ai/ha, 0 to 100 scale (0 no effect, 100 complete control)
Summary of the method: as §1

[10] = test system: barnyardgrass (Echinochloa crus-galli); assay: Test A preemergence, visual plant response rating; details: for Barnyardgrass plant response rating: 125 g ai/ha, preemergence, 0 to 100 scale, 0 no effect, 100 complete control; for Barnyardgrass plant response rating (0 to 100 scale): 500 g ai/ha Preemergence, approx. 10 days
Summary of the method: as §1

kochia (Kochia scoparia) [11] = assay: Test A preemergence, visual plant response rating; details: for Kochia plant response rating: 125 g ai/ha, preemergence, 0 to 100 scale, 0 no effect, 100 complete control; for Kochia plant response rating (0 to 100 scale): 500 g ai/ha Preemergence, approx. 10 days
Summary of the method: as §1

[12] = test system: pigweed (Amaranthus retroflexus); assay: Test A preemergence, visual plant response rating; details: for Pigweed plant response rating: 125 g ai/ha, preemergence, 0 to 100 scale, 0 no effect, 100 complete control; for Pigweed plant response rating (0 to 100 scale): 500 g ai/ha Preemergence, approx. 10 days
Summary of the method: as §1

[13] = test system: Italian ryegrass (Lolium multiflorum); assay: Test A preemergence, visual plant response rating; details: for Ryegrass, Italian plant response rating: 125 g ai/ha, preemergence, 0 to 100 scale, 0 no effect, 100 complete control; for Ryegrass, Italian plant response rating (0 to 100 scale): 500 g ai/ha Preemergence, approx. 10 days
Summary of the method: as §1

[14] = test system: ragweed (common ragweed, Ambrosia elatior); assay: Test A preemergence, visual plant response rating; details: for Ragweed plant response rating: 125 g ai/ha, preemergence, 0 to 100 scale, 0 no effect, 100 complete control; for Ragweed plant response rating (0 to 100 scale): 500 g ai/ha Preemergence, approx. 10 days
Summary of the method: as §1

[15] = test system: foxtail, giant (giant foxtail, Setaria faberii); assay: Test A preemergence, visual plant response rating; details: for Foxtail, Giant plant response rating: 125 g ai/ha, preemergence, 0 to 100 scale, 0 no effect, 100 complete control; for Foxtail, Giant plant response rating (0 to 100 scale): 500 g ai/ha Preemergence, approx. 10 days
Summary of the method: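 Greenhouse pot test in loam–sand soil mix: compound in a surfactant-containing non-phytotoxic solvent applied preemergence (directed soil spray) or postemergence (one- to two-leaf plants, 2–10 cm). Injury scored visually after ~10 days, 0–100.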

[16] = test system: ducksalad (Heteranhera limosa); assay: Test B flooded paddy test, visual plant response rating; details: 250 g ai/ha, Flood, applied to paddy water, 2-leaf stage, evaluated after 13 to 15 days
Summary of the method: (§2)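 Seedlings at 2 leaves; compound into paddy water (3 cm flood, maintained); 13–15 d greenhouse; visual score relative to controls.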

[17] = test system: barnyardgrass (Echinochloa crus-galli); assay: as above; details: 250 g ai/ha, Flood, applied to paddy water, 2-leaf stage, evaluated after 13 to 15 days
Summary of the method: as §2

[18] = test system: sedge, umbrella (small-flower umbrella sedge, Cyperus difformis); assay: as above; details: 250 g ai/ha, Flood, applied to paddy water, 2-leaf stage, evaluated after 13 to 15 days
Summary of the method: as §2

rice (Oryza sativa) = assay: as above; details: 250 g ai/ha, Flood, applied to paddy water, 2-leaf stage, evaluated after 13 to 15 days
Summary of the method: as §2

Row | SMILES | Barnyardgrass plant response rating (0 to 100 scale) [1] | Barnyardgrass plant response rating [1] | Corn plant response rating (0 to 100 scale) (corn (Zea mays)) | Corn plant response rating (corn (Zea mays)) | Galium plant response rating (0 to 100 scale) [2] | Galium plant response rating [2] | Kochia plant response rating (0 to 100 scale) (kochia (Kochia scoparia) [3]) | Kochia plant response rating (kochia (Kochia scoparia) [3]) | Blackgrass plant response rating (0 to 100 scale) [4] | Blackgrass plant response rating [4] | Pigweed plant response rating (0 to 100 scale) [5] | Pigweed plant response rating [5] | Ryegrass, Italian plant response rating (0 to 100 scale) [6] | Ryegrass, Italian plant response rating [6] | Wheat plant response rating (0 to 100 scale) [7] | Wheat plant response rating [7] | Ragweed plant response rating (0 to 100 scale) [8] | Ragweed plant response rating [8] | Foxtail, Giant plant response rating (0 to 100 scale) [9] | Foxtail, Giant plant response rating [9] | further results
1 | CON=C(c1ccccc1C1CC1)c1c(O)c(C)nn(C)c1=O [Compound 104] | 80 | 40 | 30 | 30 | 100 | 90 | 80 | 70 | 90 | 80 | 90 | 70 | 100 | 90 | 80 | 40 | 90 | 80 | 80 | 70 | Barnyardgrass plant response rating [10]: 60; Barnyardgrass plant response rating (0 to 100 scale) [10]: 80; Kochia plant response rating (kochia (Kochia scoparia) [11]): 20; Kochia plant response rating (0 to 100 scale) (kochia (Kochia scoparia) [11]): 70; Pigweed plant response rating [12]: 70; Pigweed plant response rating (0 to 100 scale) [12]: 70; Ryegrass, Italian plant response rating [13]: 90; Ryegrass, Italian plant response rating (0 to 100 scale) [13]: 100; Ragweed plant response rating [14]: 50; Ragweed plant response rating (0 to 100 scale) [14]: 80; Foxtail, Giant plant response rating [15]: 80; Foxtail, Giant plant response rating (0 to 100 scale) [15]: 100; Plant response rating, Ducksalad (0 to 100 scale, 0 is no effect, 100 is complete control) [16]: 0; Plant response rating, Barnyardgrass (0 to 100 scale, 0 is no effect, 100 is complete control) [17]: 0; Plant response rating, Sedge, Umbrella (0 to 100 scale, 0 is no effect, 100 is complete control) [18]: 0; Plant response rating, Rice (0 to 100 scale, 0 is no effect, 100 is complete control) (rice (Oryza sativa)): 0
2 | Cc1nn(C)c(=O)c(C(=NOCC=CCl)c2ccc(F)c3ccccc23)c1O [Compound 107] | 90 | 80 | 20 | 0 | 90 | 70 | 60 | 30 | 80 | 80 | 100 | 80 | 90 | 70 | 40 | 0 | 90 | 80 | 80 | 70 | Barnyardgrass plant response rating [10]: 70; Barnyardgrass plant response rating (0 to 100 scale) [10]: 90; Kochia plant response rating (kochia (Kochia scoparia) [11]): 0; Kochia plant response rating (0 to 100 scale) (kochia (Kochia scoparia) [11]): 30; Pigweed plant response rating [12]: 60; Pigweed plant response rating (0 to 100 scale) [12]: 80; Ryegrass, Italian plant response rating [13]: 70; Ryegrass, Italian plant response rating (0 to 100 scale) [13]: 90; Ragweed plant response rating [14]: 20; Ragweed plant response rating (0 to 100 scale) [14]: 80; Foxtail, Giant plant response rating [15]: 80; Foxtail, Giant plant response rating (0 to 100 scale) [15]: 100; Plant response rating, Ducksalad (0 to 100 scale, 0 is no effect, 100 is complete control) [16]: 0; Plant response rating, Barnyardgrass (0 to 100 scale, 0 is no effect, 100 is complete control) [17]: 0; Plant response rating, Sedge, Umbrella (0 to 100 scale, 0 is no effect, 100 is complete control) [18]: 0; Plant response rating, Rice (0 to 100 scale, 0 is no effect, 100 is complete control) (rice (Oryza sativa)): 0
3 | CON=C(c1cccc(C(F)(F)F)c1Cl)c1c(O)c(C)nn(C)c1=O [Compound 103] | 30 | 20 | 0 | 0 | 70 | 40 | 20 | 0 | 40 | 20 | 30 | 10 | 50 | 0 | 0 | 0 | 20 | 10 | 30 | 0 | Barnyardgrass plant response rating [10]: 0; Barnyardgrass plant response rating (0 to 100 scale) [10]: 40; Kochia plant response rating (kochia (Kochia scoparia) [11]): 0; Kochia plant response rating (0 to 100 scale) (kochia (Kochia scoparia) [11]): 0; Pigweed plant response rating [12]: 0; Pigweed plant response rating (0 to 100 scale) [12]: 50; Ryegrass, Italian plant response rating [13]: 30; Ryegrass, Italian plant response rating (0 to 100 scale) [13]: 70; Ragweed plant response rating (0 to 100 scale) [14]: 50; Foxtail, Giant plant response rating [15]: 0; Foxtail, Giant plant response rating (0 to 100 scale) [15]: 20; Plant response rating, Ducksalad (0 to 100 scale, 0 is no effect, 100 is complete control) [16]: 0; Plant response rating, Barnyardgrass (0 to 100 scale, 0 is no effect, 100 is complete control) [17]: 0; Plant response rating, Sedge, Umbrella (0 to 100 scale, 0 is no effect, 100 is complete control) [18]: 0; Plant response rating, Rice (0 to 100 scale, 0 is no effect, 100 is complete control) (rice (Oryza sativa)): 0
